According to patent publication US11466044B2 (WAYNE STATE UNIVERSITY, priority 2017, dated 2022):
Values after ≈ are worked out from the molar mass of the structure shown.

Key:
[1] = tested on: MRSA; assay: MIC by broth microdilution, MRSA isolates; type: cell-based; conditions: for MIC AG038 MRSA: clinical isolate AG038
[2] = tested on: E coli wild type; assay: MIC by broth microdilution, wild type E coli; type: cell-based; conditions: for MIC AG001 E. coli WT: clinical isolate AG001, WT
[3] = tested on: wild type bacterial ribosomes; assay: in-vitro translation assay, bacterial ribosomes; type: biochemical; conditions: Mycobacterium smegmatis ribosomes; read-out: IC50 Bacterial
Text: (§1) The antiribosomal activity of these compounds was investigated with cell-free translation assays using both wild type bacterial ribosomes and hybrid ribosomes carrying eukaryotic decoding A sites enabling the prediction of selectivity.

[4] = tested on: A1555G mutant mitochondrial ribosome (human chimeric); assay: in-vitro translation assay, human chimeric ribosomes, A1555G mutant mitochondrial decoding site; type: biochemical; conditions: human mitochondrial decoding site with A1555G point mutation; read-out: IC50 Mitoch. A1555G
Text: as §1

[5] = tested on: cytosolic ribosome (human chimeric); type: biochemical; conditions: ribosomes with a human cytosolic decoding site; read-out: IC50 Cytosolic
Text: as §1

[6] = tested on: mitochondrial ribosome (human chimeric); type: biochemical; conditions: ribosomes with a human mitochondrial decoding site; read-out: IC50 Mitoch.
Text: as §1

[7] = tested on: P aeruginosa; assay: MIC by broth microdilution, P aeruginosa isolates; type: cell-based, Pseudomonas aeruginosa
[8] = tested on: E coli carrying specific resistance determinants; assay: MIC by broth microdilution, E coli carrying specific resistance determinants; type: cell-based
[9] = tested on: Klebsiella pneumonia AG215; assay: MIC by broth microdilution, Klebsiella pneumonia; type: cell-based; conditions: strain AG215 Klebsiella pneumonia
[10] = tested on: Acinetobacter baumannii pittii AG225; assay: MIC by broth microdilution, Acinetobacter baumannii; type: cell-based; conditions: strain AG225 Acinetobacter baumannii pittii
[11] = tested on: Enterobacter cloacae AG290; assay: MIC by broth microdilution, Enterobacter cloacae; type: cell-based; conditions: strain AG290 Enterobacter cloacae
[12] = tested on: M. smegmatis SZ380; assay: MIC by broth microdilution, M. smegmatis; conditions: strain SZ380 Mycobacterium smegmatis

Q: How did the “MIC AG038 MRSA” value [1] turn out when NCC1OC(OC2C(CO)OC(OC3C(O)C(N)CC(N)C3OC3OC4C(O)COC4C(O)C3N)C2O)C(N)C(O)C1O (centres unmarked) [DC204] was run?
A: The value was 8 mg/L (≈ 12.7 µM).

Q: What about the “MIC AG001 E. coli WT” value [2] of the same compound?
A: Its value is 16 mg/L (≈ 25.5 µM).

Q: And the IC50 [3]?
A: Its IC50 is 0.2 µM.

Q: And the IC50 [4]?
A: Its IC50 is 117 µM.

Q: What about the IC50 [5] of the same compound?
A: The IC50 was 276 µM.

Q: What about the IC50 [6] of the same compound?
A: The IC50 was 131 µM.

Q: With CCCC(O)C1OC(OC2C(N)CC(N)C(O)C2OC2OC(CO)C(OC3OC(CN)C(O)C(O)C3N)C2O)C(N)C(O)C1O (centres unmarked) [Compound 142] as the compound, how does the “MIC50 MRSA AG38” value ([1]; strain AG38, Table 1 (Example 2)) read?
A: Its value is 4 mg/L (≈ 6.08 µM).

Q: And the “MIC50 MRSA AG39” value ([1]; strain AG39, Table 1 (Example 2))?
A: Its value is over 128 mg/L.

Q: And the “MIC50 MRSA AG42” value ([1]; strain AG42, Table 1 (Example 2))?
A: The value was over 128 mg/L.

Q: What about the “MIC50 MRSA AG44” value ([1]; strain AG44, Table 1 (Example 2)) of the same compound?
A: The value was 2 mg/L (≈ 3.04 µM).

Q: And the “MIC50 E coli BM13 (AG06) wt” value ([2]; BM13 (AG06) wt, Table 2A (Example 2))?
A: Its value is 1 mg/L (≈ 1.52 µM).

Q: What about the “MIC50 E coli pH430 WT” value ([2]; pH430 WT, Table 2B (Example 2)) of the same compound?
A: The value was 1 μg/ml.

Q: And the “MIC50 E coli AG01” value ([2]; strain AG01, Table 1 (Example 2))?
A: Its value is 8 mg/L (≈ 12.2 µM).

Q: What about the “MIC50 E coli AG03” value ([2]; strain AG03, Table 1 (Example 2)) of the same compound?
A: The value was 8 mg/L (≈ 12.2 µM).

Q: And the “MIC50 E coli AG55” value ([2]; strain AG55, Table 1 (Example 2))?
A: The value was 8 mg/L (≈ 12.2 µM).

Q: And the “MIC AG212 E. coli” value ([2]; strain AG212 E. coli (ATCC25922))?
A: Its value is 2 mg/L (≈ 3.04 µM).

Q: What about the “MIC50 P aeruginosa AG31” value ([7]; strain AG31, Table 1 (Example 2)) of the same compound?
A: The value was over 128 mg/L.

Q: What about the “MIC50 P aeruginosa AG32” value ([7]; strain AG32, Table 1 (Example 2)) of the same compound?
A: The value was over 128 mg/L.

Q: And the “MIC50 P aeruginosa AG33” value ([7]; strain AG33, Table 1 (Example 2))?
A: Its value is over 128 mg/L.

Q: And the “MIC50 P aeruginosa AG86” value ([7]; strain AG86, Table 1 (Example 2))?
A: Its value is over 128 mg/L.

Q: And the “MIC AG220 P. aerugin” value ([7]; strain AG220 Pseudomonas aeruginosa ATCC27853)?
A: Its value is over 32 mg/L.

Q: And the “MIC50 E coli AG036 ANT(4′,4″)” value ([8]; AG036 ANT(4′,4″), Table 2B (Example 2))?
A: The value was 32 to 64 mg/L.

Q: And the “MIC50 E coli AG037 APH(3′)-III” value ([8]; AG037 APH(3′)-III, Table 2B (Example 2))?
A: The value was over 32 mg/L.

Q: What about the “MIC50 E coli AG103 armA” value ([8]; AG103 armA, Table 2B (Example 2)) of the same compound?
A: Its value is 1 mg/L (≈ 1.52 µM).

Q: What about the “MIC50 E coli pH414 AAC(6′)-I” value ([8]; pH414 AAC(6′)-I, Table 2B (Example 2)) of the same compound?
A: The value was 1 μg/ml.

Q: And the “MIC50 E coli pH415 AAC(6′)-II” value ([8]; pH415 AAC(6′)-II, Table 2B (Example 2))?
A: The value was 1 μg/ml.

Q: And the “MIC50 E coli pH421 APH(3′)-I” value ([8]; pH421 APH(3′)-I, Table 2B (Example 2))?
A: Its value is over 32 μg/ml.

Q: What about the “MIC50 E coli pH422 APH(3′)-II” value ([8]; pH422 APH(3′)-II, Table 2B (Example 2)) of the same compound?
A: Its value is over 32 μg/ml.

Q: What about the “MIC50 E coli pH423 APH(3)-VI” value ([8]; pH423 APH(3)-VI, Table 2B (Example 2)) of the same compound?
A: The value was over 32 μg/ml.

Q: And the “MIC50 E coli pH432 ANT(4′)” value ([8]; pH432 ANT(4′), Table 2B (Example 2))?
A: The value was 1 μg/ml.

Q: What about the “MIC AG215 K. pneumon” value [9] of the same compound?
A: The value was 1 mg/L (≈ 1.52 µM).

Q: What about the “MIC AG225 A. baumannii” value [10] of the same compound?
A: The value was 2 mg/L (≈ 3.04 µM).

Q: What about the “MIC AG290 E. cloacae” value [11] of the same compound?
A: Its value is 1 mg/L (≈ 1.52 µM).

Q: And the “MIC SZ380 M. smegmatis” value [12]?
A: Its value is 0.5 mg/L (≈ 0.76 µM).

Q: NCC1OC(OC2C(CO)OC(OC3C(O)C(N)CC(N)C3OC3OC4C(O)CCOC4C(O)C3N)C2O)C(N)C(O)C1O (centres unmarked) [DC210] was tested. Which “MIC AG038 MRSA” value [1] did it give?
A: The value was 4 mg/L (≈ 6.23 µM).

Q: And the “MIC pH430 WT” value ([2]; E. coli strain pH430, WT)?
A: Its value is 2-4 μg/ml.

Q: And the “MIC AG001 E. coli WT” value [2]?
A: The value was 4 mg/L (≈ 6.23 µM).

Q: And the “MIC AG031 P. aer. APH(3′)-II” value ([7]; clinical isolate AG031, APH(3′)-II)?
A: Its value is 64 mg/L (≈ 99.7 µM).

Q: And the “MIC AG036 ANT(4′,4′′)” value ([8]; E. coli strain AG036, ANT(4′,4′′))?
A: The value was 2 mg/L (≈ 3.12 µM).

Q: And the “MIC AG037 APH(3′)-III” value ([8]; E. coli strain AG037, APH(3′)-III)?
A: The value was over 128 mg/L.

Q: What about the “MIC pH421 APH(3)-I” value ([8]; E. coli strain pH421, APH(3)-I) of the same compound?
A: Its value is over 128 μg/ml.

Q: What about the “MIC pH422 APH(3′)-II” value ([8]; E. coli strain pH422, APH(3′)-II) of the same compound?
A: The value was 32 μg/ml.

Q: What about the “MIC pH423 APH(3′)-VI” value ([8]; E. coli strain pH423, APH(3′)-VI) of the same compound?
A: Its value is 4 μg/ml.

Q: What about the IC50 [3] of the same compound?
A: Its IC50 is 0.04 µM.

Q: And the IC50 [4]?
A: Its IC50 is 44 µM.

Q: What about the IC50 [5] of the same compound?
A: Its IC50 is 50 µM.

Q: What about the IC50 [6] of the same compound?
A: Its IC50 is 329 µM.
